Results on two compounds are retold here after US11413267B2, “Methods and compositions for inhibition of ATR and FANCD2 activation” (priority 2012, dated 2022).

Data set [1] deals with MDA-MB-231 cells. The data set can be described thus: Mitotic entry assay (phospho-histone H3 Ser10, nocodazole trap, flow cytometry). The format is cell-based, human. The source says:
Of these, the G2/M checkpoint involves ATM and ATR in collaboration, whereas the S/M checkpoint is mediated solely by ATR. To maintain genetic integrity, ATR can prevent premature mitotic entry in the event of incomplete DNA replication or unrepaired DNA damage. In order to evaluate the effect of benzopyran-4-one derivatives on these ATR-associated DNA damage checkpoints, we observed the effect of benzopyran-4-one derivatives on mitotic entry following hydroxyurea or cisplatin treatment.
DNA replication was measured using a Click-it EdU assay kit, which is based on incorporation of the thymidine analogue 5-ethynyl-2′-deoxyuridine (EdU) into DNA during replication (Invitrogen). Then, 10 μM EdU was added to the cell culture medium 30 min before the cells were harvested and fixed in 4% paraformaldehyde. After cycloaddition, EdU was detected with Alexa Fluor 647 using click reaction catalyzed by Cu (II), and the DNA content was stained by CellCycle 405-blue. To assay the mitotic entry, cells were treated with the indicated drugs and trapped in 70 nM nocodazole for 16 h, and antibodies against phospho-histone H3 Ser10 and PI were used to stain the mitotic cells and DNA content, respectively. An FITC Annexin V apoptosis detection kit was used to characterize the phenotype of cell death based on PI and Annexin V double staining (BD Pharmingen, San Diego, Calif.). Fluorescence-labeled cells were subsequently analyzed by the BD LSR II flow cytometer with a suitable selection of excitation and emission wavelengths. The percentages of different fluorescent cells were analyzed using WinMDI Ver. 2.9.
Background: In flow cytometry, cells or beads pass a laser one at a time.

A further data set relates to synchronized cells. Put plainly: Double-thymidine cell cycle synchronization assay (flow cytometry). The format is cell-based. The settings on record: for Percentage of G2/M cells compared with control group, in words: 9 hours of treatment after release. The source says: ATR are involved in DNA replication. […] In the results of double-thymidine cell cycle synchronization assay, according to the Table 4 which sorted out from FIGS. 21-23, the unsynchronized cells (FIG. 21(a)) become synchronization by using this method, and 97% of cells were stopped at G1/S boundary after two cycles of thymidine blocks (FIG. 21(b)). Those synchronized cells released from thymidine blockade and allowed progress into S phase in presence or absence of protoapigenone (I-1) and compound II-1.
To evaluate the effect of DNA damage checkpoint activation on cell cycle distribution, the cells were harvested at indicated time points and fixed with methanol for at least 2 h. The DNA was then stained with a solution containing propidium iodide (PI) and RNase A (Sigma-Aldrich). Fluorescently labeled cells were subsequently analyzed by the flow cytometer (LSR II; BD Biosciences) with a suitable selection of excitation and emission wavelengths. The percentages of different fluorescent cell populations were analyzed using WinMDI Ver. 2.9 (The Scripps Research Institute).

Data set [2] concerns A549 cells, MDA-MB-231 cells. The data set can be described thus: Cancer cell growth at low doses (FIGS. 19, 20). The format is cell-based, human. The following applies: low doses (I-1 0.25-1 μM, II-1 0.1-0.4 μM).
The test system of a further data set is FANCD2. The data set can be described thus: Immunoblot of FANCD2 monoubiquitination. The format is cell-based, human. The following applies: cisplatin-treated cells, same doses as Protoapigenone (I-1). An excerpt:
Understanding the mechanism by which the benzopyran-4-one derivatives compounds cause chromosomal breakages (FIG. 1) and other abnormalities might aid in identifying their targets. We hypothesized that genes with functions associated with DNA damage checkpoints and/or DNA repair might be targeted by benzopyran-4-one derivatives. To test this hypothesis, we assessed the effects of benzopyran-4-one derivatives on DDR induced by H2O2. […] In response to DNA double-strand breaks (DSBs), FANCD2 is known to be monoubiquitinated on K561 (FANCD2-Ub) in an ATR-dependent manner to stimulate repair (Andreassen P R, et al. Genes Dev 2004). […] Collectively, these findings indicate that benzopyran-4-one derivatives can modify ATR signaling after various types of DNA damage.
Inhibition of the checkpoint and repair mechanisms leads to chemosensitization in cancers. […] We further treated individual cells with cisplatin in combination with several varying doses of benzopyran-4-one derivatives, and counted survival colonies to determine their ability to survive after cisplatin-induced damage. […]
Cell lysate preparations, gel electrophoresis, and immunoblotting were performed as previously described (23). The binding of primary antibodies were detected by horseradish peroxidase-coupled secondary antibodies (Jackson ImmunoResearch) followed by enhanced chemiluminescence (ECL) (Millipore). […]

Data set [3] relates to MDA-MB-231 cells. Put plainly: In vitro chemosensitization assay (clonogenic survival). The format is cell-based, human. The source says:
Inhibition of the checkpoint and repair mechanisms leads to chemosensitization in cancers. […] We further treated individual cells with cisplatin in combination with several varying doses of benzopyran-4-one derivatives, and counted survival colonies to determine their ability to survive after cisplatin-induced damage. […] To investigate the chemosensitization effect of low-dose benzopyran-4-one derivatives in vivo, we established a tumor xenograft in nude mice using human MDA-MB-231 tumor cells, which are considered to be more resistant to cisplatin and are also sensitive to treatment with benzopyran-4-one derivatives, at least as compared to A549 cells (FIGS. 4, 17(a) and 17(b)). […] The pharmacokinetic data of Protoapigenone (I-1) and compound II-1 needs to be compared in future studies to determine the differences in the chemical effects of these 2 compounds in vitro and in vivo.
Please refer to FIGS. 31(a)-31(e), which are the surviving fractions of MDA-MB-231 cells which were co-administered compound II-1 with the DNA damaging agent, i.e. (a) doxorubicin, (b) etoposide, (c) mytomycin C, (d) camptothecin, or (e) taxol. […] Accordingly, a low dose of benzopyran-4-one derivatives can enhance the chemosensitivity of the chemotherapeutic drug.
To evaluate in vitro chemosensitization, cells were seeded in 6-well plates 1 d before the experiment at a density of 100-400 cells/well. The drugs were incubated with the cells for 6 h, after which the medium was replaced with fresh drug-free FBS-containing medium. The colonies became visible and were counted 7-10 d later using 0.1% crystal violet staining following image capture by a CCD camera (LAS-4000 mini; Fujifilm).

The subject of another data set is host cell. The data set can be described thus: MTT assay of host cell toxicity. The format is cell-based. The following applies: 1 μM, 6 hours treatment plus 18 hours fresh medium. Here is the method:
To understand whether or not inhibition of the virus infection is followed by the host cell toxicity caused by the compound treatments, we performed an MTT [3-(4,5-cimethylthiazol-2-yl)-2,5-diphenyl tetrazolium bromide] assay in cells untreated or treated with indicated compounds for 6 hours. After that, the compound is washed out and the MTT assay was tested after an additional 18 hours of fresh culture medium incubation, in a way similar to the protocol shown in FIG. 26. 0.5 mg/mL of MTT contained media was added to cells at the end of the experiment and incubated for 3 hours. Then, the supernatant was removed and the formazone crystals solubilized using 100 μl of DMSO and the absorbance at 570 nm was read using a microplate reader. […] However, the virus inhibition effect of 50-99% is also shown at this dose of Compound II-1.

[4] abbreviates: compound alone (Control group, no DNA-damaging agent).
Setting [5] is: compound with Cisplatin (G2/M checkpoint).
Where [6] appears, read: compound with Hydroxyurea (S/M checkpoint).
Where [7] appears, read: 6 hrs after release from synchronization.
[8] abbreviates: 9 hrs after release from synchronization.

For the compound `O=C1C=CC(O)(c2cc(=O)c3c(O)cc(O)cc3o2)C=C1` [Compound I-1, Protoapigenone], the “The percentage of mitotic cells” value in the data set with MDA-MB-231 cells [1] (setting [4]) stood at 23.69 ± 0.94%; in the data set with MDA-MB-231 cells [1] (setting [5]), 7.99 ± 0.91%; in the data set with MDA-MB-231 cells [1] (setting [6]), 3.40 ± 0.41%. In addition, the “Cell cycle G1” value worked out at 25.45% in the data set on synchronized cells (setting [7]) and 21.41% with synchronized cells (setting [8]). For the same compound, the “Cell cycle G2M” value with synchronized cells (setting [7]) is recorded as 0.41%; in the data set with synchronized cells (setting [8]), 16.46%. Moreover, the results for the “Cell cycle S” value in the data set on synchronized cells (setting [7]) and in the data set on synchronized cells (setting [8]) were 69.13% and 60.89%, respectively. In addition, in the data set with synchronized cells, the “Percentage of G2/M cells compared with control group, in words” value was “significantly reduce”. Besides, the Cancer growth entry in data set [2] is “significantly slowed cancer growth in a dose-dependent manner”.
`O=C1C=CC(O)(c2cc(=O)c3c(ccc4ccccc43)o2)C=C1` [Compound II-1, 3-(1-hydroxy-4-oxo-cyclohexa-2,5-dienyl)-1H-benzo[f]chromen-1-one]: the “FANCD2 monoubiquitination and protein stability” value in the data set on FANCD2 was “not only inhibits monoubiquitination of FANCD2 but also affects FANCD2 protein stability”. Also, the “The percentage of mitotic cells” value with MDA-MB-231 cells [1] (setting [4]) is 12.05 ± 0.68%; in the data set on MDA-MB-231 cells [1] (setting [5]), 8.14 ± 0.99%; with MDA-MB-231 cells [1] (setting [6]) it was 10.49 ± 1.17%. Moreover, the “Cell cycle G1” value in the data set with synchronized cells (setting [7]) was 21.72%; with synchronized cells (setting [8]) it was 15.50%. Moreover, the figures for the “Cell cycle G2M” value in the data set on synchronized cells (setting [7]) and in the data set with synchronized cells (setting [8]) were 4.59% and 20.45%, respectively. Besides, the “Cell cycle S” value is listed as 72.01% in the data set on synchronized cells (setting [7]) and 63.06% in the data set on synchronized cells (setting [8]). For the same compound, the “Percentage of G2/M cells compared with control group, in words” value with synchronized cells was “significantly reduce”. The Cancer growth entry in data set [2] is reported as “significantly slowed cancer growth in a dose-dependent manner”. For the same compound, the “Survival of MDA-MB-231 cells” value in the data set with MDA-MB-231 cells [3] (2.5 nM to 20.0 nM co-administered with camptothecin) is listed as “not significantly decreased”; with MDA-MB-231 cells [3] (2.5 nM to 20.0 nM co-administered with doxorubicin), “significantly decreased”; in the data set with MDA-MB-231 cells [3] (2.5 nM to 20.0 nM co-administered with etoposide) it was “significantly decreased”; in the data set on MDA-MB-231 cells [3] (2.5 nM to 20.0 nM co-administered with mytomycin C) it was “significantly decreased”; in the data set with MDA-MB-231 cells [3] (2.5 nM to 20.0 nM co-administered with taxol), “not significantly decreased”. Besides, in the data set with host cell, the “Decrease of surviving cells” value was 5-10%.
